Assay results as given in PubChem BioAssay AID1053145 (Broad Institute, 2014).
The source made the active and inactive calls. How the calls were made is not given here.

System: HepG2 viability, CellTiter-Glo ATP luminescence, overnight
Test: HepG2 cell viability, dose response, cytotoxicity control for Trib1 inducer project, ATP luminescence, cherry-pick (AID 1053145)

## CN1C(=O)c2cc(NC(=O)c3ccc(C(F)(F)F)cc3)ccc2OC[C@@H]2O[C@H](CC(=O)NC3Cc4ccccc4C3)CC[C@@H]21
  AC50: > 25 µM (inactive)

## CN1C(=O)c2cc(NC(=O)c3ccc(C(F)(F)F)cc3)ccc2OC[C@@H]2O[C@@H](CC(=O)NC3Cc4ccccc4C3)CC[C@@H]21
  AC50: > 25 µM (inactive)
